Measured values: paper PMC7501296, “Rapid and direct control of target protein levels with VHL-recruiting dTAG molecules” (Nature Communications, 2020)
Where “and” joins values, the source holds several entries; their conditions need not be identical. Equal values may be shown once.

Tests used:
Format in all cases: cell-based
[1] = tested on: PATU-8902 LACZ-FKBP12^F36V clone; test: Antiproliferation, PATU-8902 LACZ-FKBP12F36V clone, 3D-spheroid (CellTiter-Glo)
Description: (§1) Cell viability was assayed in 2D-adherent or ultra-low adherent 3D-spheroids using CellTiter-Glo (Promega)[6],[15]. Luminescence was measured on an Envision 2104 plate reader (PerkinElmer) and Fluostar Omega Reader (BMG Labtech) and data was analyzed using GraphPad PRISM v8. Synergy assessments were performed using CellTiter-Glo (Promega) with the following modifications to the protocol described in the ref. [34]. In brief, EWS502 cells were plated at 1000 cells per well in 50 µL of appropriate media in 384-well white culture plates (Corning) allowed to adhere overnight, and 100 nL of compounds were added using a Janus Workstation pin tool (PerkinElmer) for 72 h. Cell viability was measured by addition of 10 µL of CellTiter-glo (Promega), followed by incubation for 15 minutes at room temperature. Luminescence was measured on an Envision 2104 plate reader (PerkinElmer) and data was analyzed using GraphPad PRISM v8.

FKBP12^WT-Nluc = target: T1, FKBP12^WT-Nluc (Homo sapiens, UniProt P62942); test: FKBP12WT-Nluc dual luciferase assay (293FT); details: 293FT FKBP12WT-Nluc, 24 h
T1 construct: expressed in transfected cells; host or cells: 293FT
Description: (§2) Dual luciferase assays were performed using 293FT FKBP12^WT-Nluc and FKBP12^F36V-Nluc cells. In brief, cells were plated at 2000 cells per well in 20 µL of appropriate media in 384-well white culture plates (Corning), allowed to adhere overnight, and 100 nL of compounds were added using a Janus Workstation pin tool (PerkinElmer) for 24 h at 37 °C. To evaluate Fluc signal, plates were brought to room temperature, 20 µL of Dual-Glo Reagent (Promega) was added for 10 min and luminescence was measured on an Envision 2104 plate reader (PerkinElmer). Subsequently, 20 µL of Dual-Glo Stop & Glo Reagent (Promega) was added for 10 min and luminescence was again measured to capture Nluc signal. DMSO-normalized ratios of Nluc/Fluc signal was analyzed and plotted using GraphPad PRISM v8[6].

[2] = tested on: PATU-8902 LACZ-FKBP12^F36V clone; test: Antiproliferation, PATU-8902 LACZ-FKBP12F36V clone, 2D-monolayer (CellTiter-Glo)
Description: as §1

[3] = tested on: PATU-8902 FKBP12^F36V-KRAS^G12V; KRAS^-/- clone; test: Antiproliferation, PATU-8902 FKBP12F36V-KRASG12V; KRAS-/- clone, 3D-spheroid (CellTiter-Glo); details: FKBP12F36V-KRASG12V, KRAS-/-, 3D-spheroid, replicate values
Description: as §1

FKBP12^F36V-Nluc = target: T2, FKBP12^F36V-Nluc (Homo sapiens, UniProt P62942, F37V); test: FKBP12F36V-Nluc dual luciferase assay (293FT); details: 293FT FKBP12F36V-Nluc, 24 h
T2 construct: expressed in transfected cells; host or cells: 293FT
Description: as §2

[4] = tested on: PATU-8902 FKBP12^F36V-KRAS^G12V; KRAS^-/- clone; test: Antiproliferation, PATU-8902 FKBP12F36V-KRASG12V; KRAS-/- clone, 2D-monolayer (CellTiter-Glo)
Description: as §1

[5] = log10[compound] (M) -5.69897, replicate values
[6] = log10[compound] (M) -6.19897, replicate values
[7] = log10[compound] (M) -6.69897, replicate values
[8] = log10[compound] (M) -7.19897, replicate values
[9] = log10[compound] (M) -7.69897, replicate values
[10] = log10[compound] (M) -8.19897, replicate values
[11] = log10[compound] (M) -8.69897, replicate values
[12] = log10[compound] (M) -9.19897, replicate values
[13] = log10[compound] (M) -9.69897, replicate values
[14] = log10[compound] (M) -10.199, replicate values
[15] = log10[compound] (M) -5.30103, single replicates
[16] = log10[compound] (M) -5.80103, single replicates
[17] = log10[compound] (M) -6.30103, single replicates
[18] = log10[compound] (M) -6.80103, single replicates
[19] = log10[compound] (M) -7.30103, single replicates
[20] = log10[compound] (M) -7.80103, single replicates
[21] = log10[compound] (M) -8.30103, single replicates
[22] = log10[compound] (M) -8.80103, single replicates
[23] = log10[compound] (M) -9.30103, single replicates
[24] = log10[compound] (M) -9.80103, single replicates

T2 sequence (P62942 2-108 F37V limits assumed): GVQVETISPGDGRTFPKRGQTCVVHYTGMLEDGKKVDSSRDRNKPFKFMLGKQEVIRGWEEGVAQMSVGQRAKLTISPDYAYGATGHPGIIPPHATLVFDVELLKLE
T1 sequence (P62942 2-108 limits assumed): as the sequence (P62942 2-108 F37V limits assumed) above, with V36F counted along it

Structure (SMILES): CC[C@H](C(=O)N1CCCC[C@H]1C(=O)O[C@H](CCc1ccc(OC)c(OC)c1)c1ccccc1OCC(=O)NCCCCCCOc1cccc2c1C(=O)N(C1CCC(=O)N(C)C1=O)C2=O)c1cc(OC)c(OC)c(OC)c1 (stereo partly drawn) [dTAG-13-NEG]
- DMSO-normalized antiproliferation [1, 5]: 78.2662 and 80.6112 and 107.636 and 101.511
- DMSO-normalized antiproliferation [1, 6]: 115.881 and 119.912 and 109.909 and 110.138
- DMSO-normalized antiproliferation [1, 7]: 134.032 and 111.738 and 124.289 and 133.898
- DMSO-normalized antiproliferation [1, 8]: 111.46 and 97.6141 and 114.554 and 105.672
- DMSO-normalized antiproliferation [1, 9]: 122.388 and 133.597 and 106.246 and 144.762
- DMSO-normalized antiproliferation [1, 10]: 120.684 and 101.999 and 116.106 and 132.987
- DMSO-normalized antiproliferation [1, 11]: 123.405 and 123.822 and 121.356 and 113.012
- DMSO-normalized antiproliferation [1, 12]: 108.263 and 109.792 and 100.309 and 162.971
- DMSO-normalized antiproliferation [1, 13]: 109.842 and 96.251 and 145.82 and 104.761
- DMSO-normalized antiproliferation [1, 14]: 93.2647 and 77.5801 and 110.815 and 107.241
- DMSO-normalized ratio of Nluc/Fluc signal (FKBP12^WT-Nluc; [15]): 67.0666 and 77.8998 and 91.6821 and 102.898
- DMSO-normalized ratio of Nluc/Fluc signal (FKBP12^WT-Nluc; [16]): 78.9348 and 111.471 and 83.3725 and 82.7897
- DMSO-normalized ratio of Nluc/Fluc signal (FKBP12^WT-Nluc; [17]): 92.3022 and 94.9354 and 69.2394 and 97.8278
- DMSO-normalized ratio of Nluc/Fluc signal (FKBP12^WT-Nluc; [18]): 96.006 and 100.644 and 74.9876 and 76.7216
- DMSO-normalized ratio of Nluc/Fluc signal (FKBP12^WT-Nluc; [19]): 72.8244 and 95.6646 and 99.6579 and 99.4332
- DMSO-normalized ratio of Nluc/Fluc signal (FKBP12^WT-Nluc; [20]): 97.6563 and 103.416 and 111.647 and 107.58
- DMSO-normalized ratio of Nluc/Fluc signal (FKBP12^WT-Nluc; [21]): 72.1292 and 95.3278 and 119.638 and 97.0458
- DMSO-normalized ratio of Nluc/Fluc signal (FKBP12^WT-Nluc; [22]): 78.9909 and 117.088 and 62.8565 and 76.9455
- DMSO-normalized ratio of Nluc/Fluc signal (FKBP12^WT-Nluc; [23]): 119.218 and 128.013 and 101.879 and 100.194
- DMSO-normalized ratio of Nluc/Fluc signal (FKBP12^WT-Nluc; [24]): 65.6358 and 99.3457 and 89.3391 and 80.9056
- DMSO-normalized antiproliferation [2, 5]: 72.8225 and 72.1303 and 101.197 and 90.2175
- DMSO-normalized antiproliferation [2, 6]: 131.635 and 91.018 and 75.6842 and 106.809
- DMSO-normalized antiproliferation [2, 7]: 122.78 and 97.8706 and 155.447 and 120.938
- DMSO-normalized antiproliferation [2, 8]: 130.888 and 102.417 and 116.74 and 117.366
- DMSO-normalized antiproliferation [2, 9]: 130.608 and 108.743 and 109.209 and 155.426
- DMSO-normalized antiproliferation [2, 10]: 126.2 and 112.564 and 135.746 and 163.91
- DMSO-normalized antiproliferation [2, 11]: 114.853 and 118.921 and 108.594 and 114.639
- DMSO-normalized antiproliferation [2, 12]: 149.935 and 111.753 and 119.231 and 88.5759
- DMSO-normalized antiproliferation [2, 13]: 130.478 and 106.921 and 102.092 and 104.28
- DMSO-normalized antiproliferation [2, 14]: 146.921 and 153.043 and 111.382 and 113.309
- DMSO-normalized antiproliferation ([3]; log10[compound] (M) -5.69897): 96.8823 and 98.3914 and 98.1687 and 89.6654
- DMSO-normalized antiproliferation ([3]; log10[compound] (M) -6.19897): 105.48 and 122.576 and 96.899 and 128.406
- DMSO-normalized antiproliferation ([3]; log10[compound] (M) -6.69897): 114.368 and 120.61 and 116.857 and 110.62
- DMSO-normalized antiproliferation ([3]; log10[compound] (M) -7.19897): 96.9046 and 91.4307 and 93.53 and 114.106
- DMSO-normalized antiproliferation ([3]; log10[compound] (M) -7.69897): 103.386 and 104.261 and 89.7267 and 101.721
- DMSO-normalized antiproliferation ([3]; log10[compound] (M) -8.19897): 101.449 and 95.4289 and 118.555 and 115.899
- DMSO-normalized antiproliferation ([3]; log10[compound] (M) -8.69897): 120.176 and 108.237 and 116.378 and 119.908
- DMSO-normalized antiproliferation ([3]; log10[compound] (M) -9.19897): 94.538 and 95.4846 and 105.848 and 104.818
- DMSO-normalized antiproliferation ([3]; log10[compound] (M) -9.69897): 83.4954 and 97.4225 and 109.1 and 101.059
- DMSO-normalized antiproliferation ([3]; log10[compound] (M) -10.199): 96.7821 and 78.8679 and 98.5696 and 88.8079
- DMSO-normalized ratio of Nluc/Fluc signal (FKBP12^F36V-Nluc; [15]): 107.485 and 132.51 and 146.194 and 142.752
- DMSO-normalized ratio of Nluc/Fluc signal (FKBP12^F36V-Nluc; [16]): 129.127 and 105.072 and 162.6 and 136.425
- DMSO-normalized ratio of Nluc/Fluc signal (FKBP12^F36V-Nluc; [17]): 79.0888 and 120.578 and 92.5034 and 88.448
- DMSO-normalized ratio of Nluc/Fluc signal (FKBP12^F36V-Nluc; [18]): 88.2422 and 88.8583 and 65.8176 and 62.4888
- DMSO-normalized ratio of Nluc/Fluc signal (FKBP12^F36V-Nluc; [19]): 134.755 and 99.5368 and 72.6182 and 68.5345
- DMSO-normalized ratio of Nluc/Fluc signal (FKBP12^F36V-Nluc; [20]): 97.7941 and 97.6227 and 54.6259 and 65.8847
- DMSO-normalized ratio of Nluc/Fluc signal (FKBP12^F36V-Nluc; [21]): 87.9478 and 99.3529 and 98.1344 and 118.766
- DMSO-normalized ratio of Nluc/Fluc signal (FKBP12^F36V-Nluc; [22]): 97.4127 and 84.7262 and 88.2477 and 92.5526
- DMSO-normalized ratio of Nluc/Fluc signal (FKBP12^F36V-Nluc; [23]): 102.465 and 92.5515 and 101.177 and 79.93
- DMSO-normalized ratio of Nluc/Fluc signal (FKBP12^F36V-Nluc; [24]): 77.6015 and 76.7835 and 70.5544 and 62.7116
- DMSO-normalized antiproliferation [4, 5]: 50.9912 and 75.2013 and 73.3197 and 81.1372
- DMSO-normalized antiproliferation [4, 6]: 68.0095 and 98.7671 and 119.504 and 100.111
- DMSO-normalized antiproliferation [4, 7]: 129.938 and 93.0967 and 131.778 and 96.6262
- DMSO-normalized antiproliferation [4, 8]: 111.6 and 154.459 and 120.786 and 146.95
- DMSO-normalized antiproliferation [4, 9]: 99.1211 and 134.569 and 105.935 and 133.398
- DMSO-normalized antiproliferation [4, 10]: 121.063 and 109.153 and 96.3979 and 125.341
- DMSO-normalized antiproliferation [4, 11]: 116.243 and 134.344 and 103.587 and 114.006
- DMSO-normalized antiproliferation [4, 12]: 75.2314 and 130.564 and 98.3202 and 135.021
- DMSO-normalized antiproliferation [4, 13]: 119.764 and 98.922 and 106.747 and 99.1636
- DMSO-normalized antiproliferation [4, 14]: 97.9582 and 111.563 and 110.426 and 109.944
